US9233979B2, “Compounds that are ERK inhibitors” (Merck Sharp & Dohme Corp., priority 2012, dated 2016)

Target: phosphorylated active hERK2 enzyme (Homo sapiens (Human), UniProt P28482)
Test: Active Human ERK2 (hERK2) Activity Assay (IMAP-FP)
Format: biochemical
Details: Table 6, 0.5 nM hERK2, 30 μM ATP, 10 point titration, read-out: AERK2 IC50
Outline: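 IMAP detection beads in buffer with 24 mM NaCl stopped the reaction, and fluorescence polarization was read after 60 min binding.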

Sequence of phosphorylated active hERK2 enzyme (P28482 whole entry): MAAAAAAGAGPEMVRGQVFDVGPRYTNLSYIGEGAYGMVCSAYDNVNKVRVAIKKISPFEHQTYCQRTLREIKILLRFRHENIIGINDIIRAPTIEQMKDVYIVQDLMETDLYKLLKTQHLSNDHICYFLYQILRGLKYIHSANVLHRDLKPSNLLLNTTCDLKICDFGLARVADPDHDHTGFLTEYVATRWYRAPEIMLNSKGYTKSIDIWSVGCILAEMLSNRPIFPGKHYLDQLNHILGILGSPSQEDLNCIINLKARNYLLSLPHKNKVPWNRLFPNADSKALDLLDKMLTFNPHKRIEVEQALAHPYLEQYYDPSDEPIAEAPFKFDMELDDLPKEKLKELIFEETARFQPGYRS

| SMILES | IC50 [nM] |
| --- | --- |
| COC(=O)Nc1n[nH]c2cc(NC(=O)N[C@H](C)c3ccc(Cl)c(C)c3)ncc12 [Example 304, methyl [6-({[(1R)-1-(4-chloro-3-methyl-phenyl)ethyl}-carbamoyl}amino)-1H-pyrazolo[4,3-c]pyridin-3-yl]-carbamate] | 3.4 |
| COC(=O)Nc1n[nH]c2cc(NC(=O)N[C@H](C)c3ccc(Cl)c(F)c3)ncc12 [Example 306, methyl [6-({[(1R)-1-(4-chloro-3-fluorophenyl)ethyl]carbamoyl}amino)-1H-pyrazolo[4,3-c]pyridin-3-yl]-carbamate] | 1.5 |
| COC(=O)Nc1n[nH]c2cc(NC(=O)N[C@H](C)c3ccc(Cl)c(C(F)(F)F)c3)ncc12 [Example 309, methyl {6-[({(1R)-1-[4-chloro-3-(trifluoromethyl)-phenyl]ethyl}-carbamoyl)amino]-1H-pyrazolo[4,3-c]pyridin-3-yl}-carbamate] | 3.6 |
| C[C@@H](NC(=O)Nc1cc2[nH]nc(NC(=O)N[C@H](C)c3ccc(Cl)c(C(F)(F)F)c3)c2cn1)c1ccc(Cl)c(C(F)(F)F)c1 [Example 310, N′,N″′-1H-pyrazolo[4,3-c]-pyridine-3,6-diylbis(1-{(1R)-1-[4-chloro-3-(trifluoromethyl)-phenyl]ethyl}urea)] | 2450 |
| COC(=O)Nc1n[nH]c2cc(NC(=O)N[C@H](C)c3ccc(Cl)nc3)ncc12 [Example 311, methyl [6-({[(1R)-1-(6-chloropyridin-3-yl)ethyl]-carbamoyl}amino)-1H-pyrazolo[4,3-c]pyridin-3-yl]-carbamate] | 19.1 |
| C[C@@H](NC(=O)Nc1cc2[nH]nc(NC(=O)N[C@H](C)c3ccc(Cl)nc3)c2cn1)c1ccc(Cl)nc1 [Example 312, N′,N″′-1H-pyrazolo[4,3-c]pyridine-3,6-diylbis{1-[(1R)-1-(6-chloropyridin-3-yl)ethyl]urea}] | 134 |
| CCNC(=O)Nc1n[nH]c2cc(NC(=O)N[C@H](C)c3ccccc3)ncc12 [Example 313, (R)-1-(3-(3-ethylureido)-1H-pyrazolo[4,3-c]pyridin-6-yl)-3-(1-phenylethyl)urea] | 5.6 |
| C[C@@H](NC(=O)Nc1cc2[nH]nc(NCc3cccnc3)c2cn1)c1ccccc1 [Example 316, (R)-1-(1-phenylethyl)-3-(3-((pyridin-3-ylmethyl)amino)-1H-pyrazolo[4,3-c]pyridin-6-yl)urea] | 0.7 |
| C[C@@H](NC(=O)Nc1cc2[nH]nc(NC(=O)C3CC3)c2cn1)c1ccccc1 [Example 317, (R)—N-(6-(3-(1-phenylethyl)ureido)-1H-pyrazolo[4,3-c]pyridin-3-yl)cyclopropanecarboxamide] | 1 |
| COCC(=O)Nc1n[nH]c2cc(NC(=O)N[C@H](C)c3ccccc3)ncc12 [Example 318, (R)-2-methoxy-N-(6-(3-(1-phenylethyl)ureido)-1H-pyrazolo[4,3-c]pyridin-3-yl)acetamide] | 2.2 |
| CCNc1n[nH]c2cc(NC(=O)NC(CC)c3ccccn3)ncc12 (stereo not drawn) [Example 320, 1-(3-(ethylamino)-1H-pyrazolo[4,3-c]pyridin-6-yl)-3-(1-(pyridin-2-yl)propyl)urea] | 33 |
| COC[C@H](NC(=O)Nc1ncc2c(NC(C)C)n[nH]c2c1F)c1ccccc1 [Example 323, 1-{7-fluoro-3-[(1-methylethyl)amino]-1H-pyrazolo[4,3-c]pyridin-6-yl}-3-[(1R)-2-methoxy-1-phenylethyl]urea] | 4.1 |
| CC(C)Nc1n[nH]c2cc(NC(=O)N[C@H](C)c3ccccc3)ncc12 [Example 325, 1-{3-[(1-methyl-ethyl)amino]-1H-pyrazolo[4,3-c]-pyridin-6-yl}-3-[(1R)-1-phenylethyl]urea] | 1.5 |
| C[C@@H](NC(=O)Nc1cc2[nH]nc(NC3CCOCC3)c2cn1)c1ccccc1 [Example 327, 1-[(1R)-1-phenylethyl]-3-[3-(tetrahydro-2H-pyran-4-ylamino)-1H-pyrazolo[4,3-c]pyridin-6-yl]urea] | 1 |
| COC[C@@H](NC(=O)Nc1cc2[nH]nc(NC3CCOCC3)c2cn1)c1ccccc1 [Example 328, 1-[(1S)-2-methoxy-1-phenylethyl]-3-[3-(tetrahydro-2H-pyran-4-ylamino)-1H-pyrazolo[4,3-c]pyridin-6-yl]urea] | 0.8 |
| Cc1nc(NC(=O)N[C@H](C)c2ccccc2)cc2[nH]nc(N3CCC[C@H]3C(=O)O)c12 [Example 332, 1-[4-methyl-6-({[(1R)-1-phenyl-ethyl]carbamoyl}-amino)-1H-pyrazolo[4,3-c]-pyridin-3-yl]proline] | 74.7 |
| Cc1nc(NC(=O)N[C@H](C)c2ccccc2)cc2[nH]nc(N)c12 [Example 333, (R)-1-(3-amino-4-methyl-1H-pyrazolo[4,3-c]pyridin-6-yl)-3-(1-phenylethyl)urea] | 0.7 |
| CCNc1n[nH]c2cc(NC(=O)N[C@H](COC)c3ccccc3)nc(C)c12 [Example 334, 1-[3-(ethylamino)-4-methyl-1H-pyrazolo[4,3-c]-pyridin-6-yl]-3-[(1S)-2-methoxy-1-phenylethyl]urea] | 2.9 |
| COC[C@@H](NC(=O)Nc1cc2[nH]nc(N)c2c(C)n1)c1ccccc1 [Example 335, 1-(3-amino-4-methyl-1H-pyrazolo[4,3-c]-pyridin-6-yl)-3-[(1S)-2-methoxy-1-phenylethyl]urea] | 3 |
| COC(=O)Nc1n[nH]c2cc(NC(=O)N[C@H](C)c3ccccc3)nc(C)c12 [Example 338, methyl [4-methyl-6-({[(1R)-1-phenyl-ethyl]carbamoyl}-amino)-1H-pyrazolo[4,3-c]-pyridin-3-yl]-carbamate] | 16.1 |
| COC[C@H](NC(=O)Nc1cc2[nH]nc(N3CCOCC3)c2cn1)c1ccc(F)cc1 [Example 339, (R)-1-(1-(4-fluorophenyl)-2-methoxyethyl)-3-(3-morpholino-1H-pyrazolo[4,3-c]-pyridin-6-yl)urea] | 0.4 |
| CC(C)Nc1n[nH]c2cc(NC(=O)N[C@H](C)c3ccc(F)cc3)ncc12 [Example 340, (R)-1-(1-(4-fluorophenyl)ethyl)-3-(3-(isopropyl-amino)-1H-pyrazolo[4,3-c]-pyridin-6-yl)urea] | 1.6 |

Further compounds by falling IC50, results first:

| IC50 [nM] | SMILES |
| --- | --- |
| 732 | COc1cc([C@@H](C)NC(=O)Nc2cc3[nH]nc(NC(=O)N[C@H](C)c4ccc(Cl)c(OC)c4)c3cn2)ccc1Cl [Example 314, 1,1′-(1H-pyrazolo[4,3-c]pyridine-3,6-diyl)bis(3-((R)-1-(4-chloro-3-methoxyphenyl)ethyl)urea)] |
| 461 | C[C@@H](NC(=O)Nc1cc2[nH]nc(NC(=O)N[C@H](C)c3ccc(Cl)c(O)c3)c2cn1)c1ccc(Cl)c(O)c1 [Example 308, N′,N″′-1H-pyrazolo[4,3-c]-pyridine-3,6-diylbis{1-[(1R)-1-(4-chloro-3-hydroxyphenyl)-ethyl]urea}] |
| 127 | CC(=O)Nc1n[nH]c2cc(NC(=O)N[C@H](C)c3ccccc3)nc(C)c12 [Example 337, (R)—N-(4-methyl-6-(3-(1-phenylethyl)ureido)-1H-pyrazolo[4,3-c]pyridin-3-yl)acetamide] |
| 11.8 | CNc1n[nH]c2cc(NC(=O)N[C@H](C)c3ccccc3)nc(C)c12 [Example 336, 1-[4-methyl-3-(methylamino)-1H-pyrazolo[4,3-c]pyridin-6-yl]-3-[(1R)-1-phenylethyl]urea] |
| 10 | CCOC(=O)Nc1n[nH]c2cc(NC(=O)N[C@H](C)c3ccccc3)ncc12 [Example 315, (R)-ethyl(6-(3-(1-phenylethyl)ureido)-1H-pyrazolo[4,3-c]pyridin-3-yl)carbamate] |
| 7.3 | COC(=O)Nc1n[nH]c2cc(NC(=O)N[C@H](C)c3ccccc3F)ncc12 [Example 305, methyl [6-({[(1R)-1-(2-fluorophenyl)-ethyl]carbamoyl}-amino)-1H-pyrazolo[4,3-c]-pyridin-3-yl]-carbamate] |
| 3.1 | COC(=O)Nc1n[nH]c2cc(NC(=O)NC(C)c3ccc(F)c(F)c3)ncc12 (stereo not drawn) [Example 303, methyl [6-({[1-(3,4-difluoro-phenyl)ethyl]-carbamoyl}amino)-1H-pyrazolo[4,3-c]pyridin-3-yl]-carbamate] |
| 2.9 | CCNc1n[nH]c2cc(NC(=O)N[C@H](C)c3ccccc3)nc(C)c12 [Example 331, (R)-1-(3-(ethylamino)-4-methyl-1H-pyrazolo[4,3-c]pyridin-6-yl)-3-(1-phenylethyl)urea] |
| 2.6 | COC(=O)Nc1n[nH]c2cc(NC(=O)N[C@H](C)c3ccc(F)cc3)ncc12 [Example 321, (R)-methyl (6-(3-(1-(4-fluorophenyl)ethyl)ureido)-1H-pyrazolo[4,3-c]pyridin-3-yl)carbamate] |
| 2.4 | C[C@@H](NC(=O)Nc1cc2[nH]nc(NCC(F)(F)F)c2cn1)c1ccccc1 [Example 341, 1-[(1R)-1-phenylethyl]-3-{3-[(2,2,2-trifluoro-ethyl)amino]-1H-pyrazolo[4,3-c]-pyridin-6-yl}urea] |
| 1.7 | COC(=O)Nc1n[nH]c2cc(NC(=O)N[C@H](C)c3ccc(Cl)c(O)c3)ncc12 [Example 307, methyl [6-({[(1R)-1-(4-chloro-3-hydroxyphenyl)-ethyl]carbamoyl}-amino)-1H-pyrazolo[4,3-c]-pyridin-3-yl]-carbamate] |
| 1 | COC[C@@H](NC(=O)Nc1cc2[nH]nc(NC3CC3)c2cn1)c1ccccc1 [Example 329, 1-[3-(cyclopropyl-amino)-1H-pyrazolo[4,3-c]-pyridin-6-yl]-3-[(1S)-2-methoxy-1-phenylethyl]urea] |
| 0.9 | C[C@@H](NC(=O)Nc1cc2[nH]nc(NC3CC3)c2cn1)c1ccccc1 [Example 330, 1-[3-(cyclopropyl-amino)-1H-pyrazolo[4,3-c]pyridin-6-yl]-3-[(1R)-1-phenylethyl]urea] |
| 0.4 | COC[C@@H](NC(=O)Nc1cc2[nH]nc(NC(=O)C(C)C)c2cn1)c1ccccc1 [Example 319, (S)-N-(6-(3-(2-methoxy-1-phenylethyl)ureido)-1H-pyrazolo[4,3-c]pyridin-3-yl)-isobutyramide] |
